We go through 14 molecules from paper PMC7108782, “Direct interaction of metastasis-inducing S100P protein with tubulin causes enhanced cell migration without changes in cell adhesion” (Biochemical Journal, 2020).

Test [1] addresses T1, Recombinant S100P (UniProt P25815 1-95, 15N-labelled in the NMR experiments).
T1 chain: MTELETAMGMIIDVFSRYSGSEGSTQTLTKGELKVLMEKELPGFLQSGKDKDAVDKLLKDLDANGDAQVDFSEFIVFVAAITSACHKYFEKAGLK
In words: SPR; competition: 20 µM peptide mixed with 1 µM S100P, applied to the α,β-tubulin-coated chip; extent of binding relative to S100P alone (100%).

For test [2] the following is noted: cited from earlier work; for Kd: ref [58], read-out: Kd for Ca2+ in absence of protein target. From the text: Cell migration is a complicated biological process involving many disparate cellular machines and regulatory systems. The cytoskeleton is essential for cell migration and is composed of three major types of fibres, intermediate filaments, actomyosin filaments and MTs. The intermediate filaments mainly provide mechanical strength to cells, whilst actomyosin filaments directly provide forces for cell migration. The roles of MTs in cell migration are more complex. On the one hand, MTs are a major support to cell polarity and their assembly can provide force for directional mo ...

A further test addresses T2, S100P (Homo sapiens, UniProt P25815).
T2 construct: made in house
T2 sequence (P25815 1-95): T1 chain
In words: Isothermal titration calorimetry (ITC) of tubulin peptides with S100P. Type of test: binding. To be noted: for affinity for S100P (in words): NMR and ITC. As to the method:
Measurements were conducted using an ITC-200 instrument (Microcal) as previously described. ITC titrations were performed in 20 mM MES pH 6.1, 50 mM NaCl, 1.0 mM TCEP and 5 mM CaCl2 (for Ca^2+-form of S100P) at 25°C. Due to low solubility, peptide solutions at concentrations of 10–400 µM were placed in the cell and titrated with S100P at concentrations of 0.5–3 mM, depending on the peptide concentration. Data were integrated and fitted to a single site binding equation using Origin 7 software which was included with the ITC module (Malvern Microcal, Malvern, U.K.).

Another test deals with S100P - α,β-tubulin. In words: SPR inhibition of S100P binding to α,β-tubulin-coated chip by peptides. Also noted: species or system human. As to conditions: 20 µM peptide, 1 µM S100P. As for the experimental part: For SPR binding assays, α,β-tubulin proteins described earlier were immobilised on a carboxymethylated dextran surface of a CM5 chip using BS^3 for use in Biocore X100. Recombinant S100P produced as described previously was used as a ligand in different concentrations at 20, 50, 100, 200, 1000, 2000 nM for calculation of the equilibrium dissociation constant (Kd) from the association/dissociation rate constants and from the extent of binding near equilibrium (Supplementary Table S2), as described previously. To detect the effects of tubulin peptides on the interaction of tubulin, different concentrations of tagged and untagged peptides were mixed with 1 µM S100P first and the mixtures were then applied to the tubulin-coated chip. The relative changes in kinetics and binding extents with different peptides were calculated using software provided by the manufacturer.

The next test concerns COS-7 S10 cells. As to the kind of experiment: Boyden chamber cell migration, S100P-inducible COS-7. The test is classed as cell-based, monkey. The text has this:
(§1) Cell migration rate (%) = M/G × 100.

The next test has as its system COS-7 cells. As to the kind of experiment: Boyden chamber cell migration, COS-7 parental. To be noted: 5 µM colchicine, 24 h, COS-7. Type of test: cell-based, monkey.
Description: as §1

In a further test the test system is MCF-7 cells. As to the kind of experiment: Boyden chamber cell migration with MT regulators, MCF-7.
The next test concerns Rama 37 cells. In words: Boyden chamber cell migration with MT regulators, Rama 37. As to conditions: 5 µM colchicine, 24 h.
Another test has as its system HeLa cells. In words: Boyden chamber cell migration with MT regulators, HeLa. As to conditions: 5 µM colchicine, 24 h.
In a further test the test system is HeLa-A3 cells. As to the kind of experiment: S100P-enhanced cell migration, HeLa-A3. The test is classed as cell-based, human. To be noted: HeLa-A3; 20 nM taxol or 5 µM colchicine, 24 h.
Description: as §1

A further test relates to Rama 37-T25 cells. As to the kind of experiment: S100P-enhanced cell migration, Rama 37-T25. Type of test: cell-based, rat. To be noted: Rama 37-T25; 20 nM taxol or 5 µM colchicine, 24 h.
Description: as §1

Test [3] relates to tubulin polymerisation in HeLa-A19 cells. In words: In vivo tubulin polymerisation assay, HeLa / HeLa-A19. The test is classed as cell-based, human. As to conditions: parental HeLa, 1 µg/ml doxycycline. As to the method:
(§2) HeLa and S100P-inducible HeLa, COS-7 and S100P-inducible COS-7 cells were routinely cultured with or without doxycycline (1 µg/ml) and treated with 33 µM nocodazole for 24 h to synchronise the cells. Then the nocodazole was washed away (First release) and the synchronised cells were cultured in normal medium for 4 h to allow them to complete cell division. The nocodazole was then added again for 4 h to dissociate all the MTs. After this time, nocodazole was again removed by extensive washings (Second release) and tubulin was allowed to polymerise in the interphase of the cell cycle for different times. The cells were treated with buffer (10 mM Tris–HCl, 150 mM KCl, pH 7.4, 2% (v/v) Triton X-100) and the Triton-X100-insoluble tubulins (representing the newly formed MTs) were solubilised in Sample Buffer and quantified by Western blotting. To test the effect of tubulin-derived peptides, 20 µM T-DIC, T-DLV, T-IMN and tag-peptide alone (Supplementary Table S3) in 0.25% (v/v) DMSO as solvent, as well as the solvent control 0.25% (v/v) DMSO were added immediately after the second release in Sample Buffer and quantified at the different time points by Western blotting.

For test [4], the system named is tubulin polymerisation in COS-7 S10 cells. In words: In vivo tubulin polymerisation assay, COS-7 / COS-7 S10. Type of test: cell-based, monkey. To be noted: parental COS-7, 1 µg/ml doxycycline. As to the method: as §2
A further test concerns tubulin. As to conditions: cited from earlier work; for interaction with tubulin: ref [24]; for effect on MT assembly: ref [25]. From the text:
The individual S100 proteins have been reported to interact inter alia with either NM or with tubulin, although with different binding affinities. […] Decreasing S100A1 is able to increase tubulin levels and this change alters neurite organisation in […]. […] However, it is ...

The target of test [5] is αβ-tubulin (UniProt P68363). As to the kind of experiment: SPR; αβ-tubulin immobilised on a CM5 chip (Biacore X100), S100P in solution; 150 mM NaCl, 0.5 mM CaCl2, single cycle; Kd from the association and dissociation rate constants.
Test [6] has as its target αβ-tubulin (UniProt P68363). In words: SPR; αβ-tubulin immobilised on a CM5 chip, S100P in solution; 300 mM NaCl (printed 300M), 0.5 mM CaCl2, multiple cycles; Kd from the extent of binding at or near equilibrium.
Test [7] deals with αβ-tubulin (UniProt P68363). In words: SPR; αβ-tubulin immobilised on a CM5 chip, S100P in solution; 300 mM NaCl (printed 300M), 0.5 mM CaCl2, multiple cycles; Kd from the association and dissociation rate constants.
Test [8] deals with αβ-tubulin (UniProt P68363). As to the kind of experiment: SPR; αβ-tubulin immobilised on a CM5 chip, S100P in solution; 500 mM NaCl (printed 500M), 0.5 mM CaCl2, multiple cycles; Kd from the association and dissociation rate constants.
Test [9] concerns the target αβ-tubulin (UniProt P68363). In words: SPR; αβ-tubulin immobilised on a CM5 chip, S100P in solution; 150 mM NaCl, 0.5 mM CaCl2, multiple cycles; Kd from the association and dissociation rate constants.
Test [10] has as its target T1, Recombinant S100P. In words: ITC.

No end group written: not given here.

As to “T-DIC, DIC peptide with the N-terminal 10 amino acid TAT-HA2 tag for cell entry”, the percent reduction of the extent of binding of 1 µM S100P to α,β-tubulin at 20 µM peptide in the test with Recombinant S100P [1] amounted to 50%.
With “DIC peptide, the 26mer starting with DIC from β-tubulin”, the percent inhibition of the extent of binding of 1 µM S100P to α,β-tubulin at 20 µM peptide with Recombinant S100P [1] was above 50%.
As to S100A4: S100 protein, the “change of Ca2+ Kd in complex with NMIIA fragments” value in [2] (ITC, preformed S100A4/NMIIA fragments, ref [57]) is “reduced by several orders of magnitude”. In test [2], the Kd was above 1000 nM.
IMNTFSVVPSPKVSDTVVEPYNATL-SVH: at S100P, the “affinity for S100P (in words)” value was “very weak or nonbinder”. Also, in the test with S100P - α,β-tubulin, the “effect on extent of binding of S100P to α,β-tubulin (in words)” value is “showed no such effect”.
Turning to “RRRQRRKKRG [Tag, 10 amino acid TAT-HA2 tag for cell entry, reference compound]”, in the test on S100P - α,β-tubulin, the “effect on extent of binding of S100P to α,β-tubulin (in words)” value is reported as “showed no effect in the binding assay”. For the same molecule, in the test with COS-7 S10 cells (20 µM tagged peptide, 8 h, doxycycline-induced COS-7 S10 vs uninduced), the “S100P-induced fold increase in migration in the presence of peptide” value amounted to 3.5 fold.
On to `COc1cc2c(c(OC)c1OC)-c1ccc(OC)c(=O)cc1[C@@H](NC(C)=O)CC2` [colchicine], for which the “reduction of migration by colchicine” value in the test on COS-7 cells, in the test on Rama 37 cells and with HeLa cells was 30–70% each time. For the same molecule, the “effect of colchicine on migration (in words)” value in the test on MCF-7 cells (MCF-7, 5 µM time course, dose response 24 h) was “increase dramatically cell migration in a time and dose-dependent manner”. The “concentration abolishing the enhancement of migration” value with MCF-7 cells (MCF-7, colchicine) was above 10 µM. Moreover, the “incubation time abolishing the enhancement of migration” value in the test on MCF-7 cells (MCF-7, colchicine) is listed as above 24 h. Further, the “concentration range enhancing migration” value with MCF-7 cells (MCF-7, colchicine, Figure 6C) is 1 to 10 µM. For the same molecule, the “effect on S100P-enhanced migration” value was “suppressed” in the test on HeLa-A3 cells; “suppressed” with Rama 37-T25 cells; “suppressed” in the test on COS-7 S10 cells (COS-7 S10, 20 nM taxol or 5 µM colchicine, 24 h). Also, in the test with COS-7 S10 cells (taxol to stabilise MTs or colchicine to dissociate MTs (abstract)), the “effect on S100P's stimulation of migration” value is listed as “abolished”.
On to “T-DLV, DLV peptide with the N-terminal 10 amino acid TAT-HA2 tag for cell entry”, for which the percent reduction of the extent of binding of 1 µM S100P to α,β-tubulin at 20 µM peptide in the test with Recombinant S100P [1] was 50%.
For the molecule VNAAIATIKTKRTIQFVDWCPTGFKVGINY [VNA], at S100P (ITC, 25°C, 20 mM MES pH 6.1, 50 mM NaCl, 1.0 mM TCEP, 5 mM CaCl2, single site fit, peptide in cell, S100P titrated), the Kd was determined as 62000 nM. Also, the “affinity for S100P (in words)” value on S100P is “relatively weak”.
As for `C[C@H]1c2cccc(O)c2C(=O)C2=C(O)[C@]3(O)C(=O)C(C(N)=O)=C(O)[C@@H](N(C)C)[C@@H]3[C@@H](O)[C@@H]21` [doxycycline, reference compound], the “effect of doxycycline on tubulin polymerisation, parental cells” value in test [3] and in test [4] was “no significant differences” each time.
Consider S100B: S100 protein, for which, in the test on tubulin, the interaction with tubulin result was “can interact with tubulin in a calcium-dependent manner” and the “effect on MT assembly” value is listed as “disrupt the assembly of MT”. For the same molecule, the Kd in [2] is above 1000 nM.

B1: S100P (natural protein)
chain: T1 chain
Take B1: the Kd with αβ-tubulin [5] turned out to be 120 nM; with αβ-tubulin [6] it was 1100 nM; with αβ-tubulin [7] it was 890 nM; with αβ-tubulin [8], 8300 nM; with αβ-tubulin [9], 210 nM.

B2: S100A9/A8: S100A9/A8 (MRP14/MRP8) complex (protein, UniProt P06702 1-114; P05109 1-93, looked up)
Protein S100-A9: MTCKMSQLERNIETIINTFHQYSVKLGHPDTLNQGEFKELVRKDLQNFLKKENKNEKVIEHIMEDLDTNADKQLSFEEFIMLMARLTWASHEKMHEGDEGPGHHHKPGLGEGTP
Protein S100-A8: MLTELEKALNSIIDVYHKYSLIKGNFHAVYRDDLKKLLETECPQYIRKKGADVWFKELDINTDGAVNFQEFLILVIKMGVAAHKKSHEESHKE
Turning to B2, the “effect on tubulin polymerisation in vivo” value in the test with tubulin (ref [27]) is recorded as “promotes tubulin polymerisation in vivo”.
For the molecule DLVLDRIRKLADQCTGLQGFLVFHSFGGGT [DLV peptide, the 30mer starting with DLV from α-tubulin], the Kd with Recombinant S100P [10] was below 10000 nM. For the same molecule, the percent inhibition of the extent of binding of 1 µM S100P to α,β-tubulin at 20 µM peptide in the test with Recombinant S100P [1] is above 50%.

B3: S100A1: S100 protein (protein, UniProt P23297 1-94, looked up)
Protein S100-A1: MGSELETAMETLINVFHAHSGKEGDKYKLSKKELKELLQTELSGFLDAQKDVDAVDKVMKELDENGDGEVDFQEYVVLVAALTVACNNFFWENS
B3: in the test with tubulin, the interaction with tubulin entry is “can interact with tubulin in a calcium-dependent manner” and the “effect on MT assembly” value is given as “disrupt the assembly of MT”.
